The values that follow come from patent US4904667A, “1H-1,2,4-thiadiazolo(3,4-b)quinazolin-5-one-2,2-dioxides, and a method for increasing the cardiac output of a mammal with them” (Ortho Pharmaceutical Corporation, priority 1989, dated 1990).

Experiment [1] has as its target cyclic nucleotide phosphodiesterase fraction III. The experiment is described as follows: Procedure I: Cyclic Nucleotide Phosphodiesterase Assay. In kind it is biochemical.
Experiment [2] concerns dog tracheal smooth muscle. Briefly: Procedure II: Inhibition of calcium dependent smooth muscle contraction (KCl-challenged dog tracheal rings). The following applies: Canis lupus familiaris, 50 mM KCl contraction, dog trachea. How it is done:
INHIBITION OF CALCIUM DEPENDENT SMOOTH MUSCLE CONTRACTION
Farley, J. M. and Miles, P. R. The Sources of Calcium for Acetylcholine-Induced Contractions of Dog Tracheal Smooth Muscle. J. Pharmacol. Exp. Ther. 207: 340-346,l 1978.
Canines, guinea pigs and rabbits
Trachea from dogs killed by excess KCl injection are stored overnight at 4° C. in oxygenated Krebs-Henseleit buffer. Tracheal rings, one cartilage segment wide (5-10 mm), are cut starting from the bronchial end. After cutting the cartilage, the trachealis muscle tissue is suspended in oxygenated Krebs-Henseleit buffer at 37° C. in a 25 ml tissue bath. After a 60 minutes equilibration period, the tissues are challenged with 10 μM carbachol. After 5 minutes the tissues are rinsed and allowed to rest 50 minutes. The tissues are then challenged with 50 mM KCl and, after 30 minutes, the contractions are quantitated. The tissues are then rinsed and reequilibrated for 50 minutes. Test compounds are then added for 10 minutes, and the tissue is rechallenged with 50 mM KCl. After 30 minutes, the contraction is recorded and used to determine the % inhibition of control.
The percent inhibition of smooth muscle contraction is calculated from response data before and after drug treatment. [formula]

Another experiment has as its system Dog. Briefly: Procedure III: Acute In Vivo Cardiotonic Evaluation (cardiac force in anesthetized dogs). The following applies: for Procedure III % Change CF (cardiac force): dose 1.9 mpk, i.v., anesthetized dog, vs pretreatment control. How it is done:
Acute In Vivo Cardiotonic Evaluation
Cardiotonic Activity of Amrinone-Win 40680. Alousi, A. A., Farah, A. I., Lester, G. Y. and Opalka, C. J. Circ. Res. 45:666, 1979.
Adult mongrel dogs are anesthetized with sodium pentobarbital and artifically respired. Arterial pressure is recorded via a femoral artery and the pressure pulse is used to trigger a cardiotachometer for heart rate. Left ventricular pressure is measured with a Millar catheter and dP/dt is derived. Cardiac output is determined by measuring ascending aortic blood flow with an electromagnetic flow probe and myocardial contractile force is measured with a Walton Brodie strain gauge sutured to the right ventricle. Lead II EKG is also recorded.
A standard dose of dopamine or dobutamine is administered to assess myocardial responsiveness.
Test compounds are administered by i.v. infusion or bolus administration and the effects on cardiovascular parameters are determined.
Dose related effects of the test compound on blood pressure, heart rate, dP/dt max. (dp/dt represents the rate at which blood pressure rises), cardiac force, and cardiac output are compared to pretreatment control values, expressed as a % change and rated for activity. Statistical evaluations are made using the appropriate parametric test against a vehicle control.

[3] abbreviates: concentration inhibiting 50% of cyclic nucleotide phosphodiesterase activity, cyclic AMP substrate, pH 7.4, read-out: Procedure I IC50.

pIC50: −log10 of the molar value. Read-outs that look alike come from different tables or passages of the source.

The pIC50 is the IC50 on a negative log10 scale, so that one unit is a factor of ten. In general, inhibition refers to how much of the control response was suppressed.

For the molecule `O=c1c2ccc(Cl)cc2nc2n1CS(=O)(=O)N2` [Example 7, 8-Chloro-1H-1,2,4-thiadiazolo[3,4-b]quinazolin-5-one-2,2-dioxide], in experiment [1] (setting [3]), the negative logarithm of the IC50 (pIC50) is 3.82. Moreover, the inhibition at 10 µM in experiment [2] was 31%.

For `O=c1c2cc([N+](=O)[O-])ccc2nc2n1CS(=O)(=O)N2` [Example 2, 7-Nitro-1H-1,2,4-thiadiazolo[3,4-b]quinazolin-5-one-2,2-dioxide], in experiment [2], the inhibition at 10 µM is 9%.

Take `O=c1c2ccccc2nc2n1CS(=O)(=O)N2` [Example 8, 1H-1,2,4-Thiadiazolo[3,4-b]quinazolin-5-one-2,2-dioxide]: the negative logarithm of the IC50 (pIC50) in experiment [1] (setting [3]) was 3.82. In addition, the inhibition at 10 µM in experiment [2] stood at 20%.

In the case of `CN(C(=O)CCCOc1ccc2nc3n(c(=O)c2c1)CS(=O)(=O)N3)C1CCCCC1` [Example 9, 7-(N-Cyclohexyl-N-methyl-4-amino-4-oxobutyloxy)-1H-1,2,4-thiadiazolo[3,4-b]quinazolin-5-one-2,2-dioxide], the pIC50 in experiment [1] (setting [3]) was 4.89; in experiment [1] (fraction III, read-out: IC50 versus cyclic nucleotide phosphodiesterase fraction III), 4.89. This molecule displayed a cardiac force increased with Dog (dog, intravenously at 1.9 mg/kg) of 37%. Further, the “Procedure III % Change CF (cardiac force)” value (shortened to “Procedure III % Change CF”) in the experiment on Dog was 37%.

Consider `COc1ccc2nc3n(c(=O)c2c1OC)CS(=O)(=O)N3` [Example 4, 6,7-Dimethoxy-1H-1,2,4-thiadiazolo[3,4-b]quinazolin-5-one-2,2-dioxide], for which, in experiment [2], the inhibition at 2 µM was 43%. The “Procedure III % Change CF” value in the experiment with Dog came out at 22%.

With `O=c1c2cc(Cl)ccc2nc2n1CS(=O)(=O)N2` [Example 6, 7-Chloro-1H-1,2,4-thiadiazolo[3,4-b]quinazolin-5-one-2,2-dioxide], the pIC50 in experiment [1] (setting [3]) was 4.15. For the same molecule, the inhibition at 10 µM in experiment [2] is 18%.

With `COc1cc2nc3n(c(=O)c2cc1OC)CS(=O)(=O)N3` [Example 3, 7,8-Dimethoxy-1H-1,2,4-thiadiazolo[3,4-b]quinazolin-5-one-2,2-dioxide], the pIC50 in experiment [1] (setting [3]) was 4.46. The inhibition at 2 µM in experiment [2] was determined as 13%. The “Procedure III % Change CF” value in the experiment with Dog came out at 8%.

As to `O=c1c2cc(Cl)c(Cl)cc2nc2n1CS(=O)(=O)N2` [Example 5, 7,8-Dichloro-1H-1,2,4-thiadiazolo[3,4-b]quinazolin-5-one-2,2-dioxide], the inhibition at 2 µM in experiment [2] is 11%.
